pKi: −log10 of the molar value.
Biological target: T1, human CRTH2 (Homo sapiens, UniProt Q9Y5Y4)
T1 sequence (Q9Y5Y4 1-395): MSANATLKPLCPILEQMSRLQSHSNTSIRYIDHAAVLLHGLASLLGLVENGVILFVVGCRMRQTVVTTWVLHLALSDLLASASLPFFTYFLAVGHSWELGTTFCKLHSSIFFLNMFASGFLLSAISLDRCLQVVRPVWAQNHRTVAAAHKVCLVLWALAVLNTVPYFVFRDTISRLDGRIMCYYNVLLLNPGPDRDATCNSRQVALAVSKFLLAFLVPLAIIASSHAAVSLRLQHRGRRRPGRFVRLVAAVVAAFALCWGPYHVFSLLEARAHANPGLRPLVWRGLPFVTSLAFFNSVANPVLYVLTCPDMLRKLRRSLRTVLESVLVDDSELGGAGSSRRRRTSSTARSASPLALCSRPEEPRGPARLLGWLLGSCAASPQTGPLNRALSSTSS
Test: CRTH-2 binding assay (scintillation proximity assay, inhibition of 3H-PGD2 binding)
Set-up: expressed in transfected cells; host or cells: 293EBNA-hCRTH2 cells (membrane preparation)
Conditions: membranes from 293EBNA-hCRTH2 cells, 3H-PGD2 3.6 nM; Ki calculated from IC50
Description: A CRTH2 binding assay was developed to measure the ability of compounds to inhibit the binding of PGD2 to human CRTH2 using a scintillation proximity assay.
Membranes containing hCRTH2 receptors were prepared from 293EBNA-hCRTH2 cells (a 293EBNA cell line stably expressing human CRTH2). The cells were grown to confluency, harvested and washed with PBS. The cells were resuspended in 10 mM Hepes pH 7.4, 1 mM EDTA and protease inhibitors and incubated for 30 min on ice. The cells were homogenized and centrifuged for 10 min at 1000×g. The supernate was centrifuged for 30 min at 100,000×g and the membrane pellet was then resuspended in 10 mM Hepes pH 7.4 and 1 mM EDTA. The protein concentration of the membrane preparation was determined by Bradford assay (Bio-Rad).
The ability of compounds to inhibit the interaction of PGD2 to human CRTH2 was determined at seven compound concentrations. Compounds were serially diluted in DMSO then diluted into CRTH2 buffer (10 mM Hepes pH 7.4, 1 mM EDTA, 10 mM MnCl2) to six times the final desired concentration. 20 μL of the diluted compounds were transferred into non-surface binding 96-well plates (Corning). Each concentration was done in triplicate. In addition to test compounds, each plate contained 12 control wells. Six of these wells contained 20 μL of CRTH2 buffer. These wells were used to measure total binding. Six wells contained 20 μL of CRTH2 buffer plus 1.5 mM indomethacin. These wells were used to measure non-specific binding. Next, 293EBNA-hCRTH2 membranes were resuspended in CRTH2 buffer with glycerol (10 mM Hepes pH 7.4, 1 mM EDTA, 10 mM MnCl2, 25% glycerol) so that the final concentration was approximately 20 μg/100 μL. Polylysine-coated yttrium silicate SPA beads (Amersham) were added to the membrane mix to a concentration of 0.4 mg/100 μL and finally ^3H-PGD2 was added to the membrane/SPA bead mix to 3.6 nM. 100 μL of the membrane/SPA bead/^3H-PGD2 mix was added to each well of the non-surface binding plates containing the diluted compound or controls. The plates were incubated for 2 hours at room temperature with shaking and then the plates were counted on a Microbeta scintillation counter (Perkin Elmer) for 1 min per well.
IC50 values were determined from the experimental results by nonlinear regression using Prism 4.0 software. The IC50 values were then used in conjunction with the Kd for hCRTH2 and the ^3H-PGD2 concentration used in the experiment to calculate the Ki for each compound.

Row | Compound | pKi
1 | CCCc1nc2cc(N(Cc3ccc(F)cc3)C(=O)c3ccccc3)ccc2n1CC(=O)O [Example 32, {5-[Benzoyl-(4-fluoro-benzyl)-amino]-2-propyl-benzoimidazol-1-yl}-acetic acid] | > 6.00
2 | CCCc1nc2c(N(Cc3ccccc3)S(=O)(=O)c3cccc(F)c3)cccc2n1CC(=O)O [Example 34, {4-[Benzyl-(3-fluoro-benzenesulfonyl)-amino]-2-propyl-benzoimidazol-1-yl}-acetic acid] | > 6.00
3 | CCCc1nc2c(N(CCOC)S(=O)(=O)c3cccc(F)c3)cccc2n1CC(=O)O [Example 35, {4-[(3-Fluoro-benzenesulfonyl)-(2-methoxy-ethyl)-amino]-2-propyl-benzoimidazol-1-yl}-acetic acid] | > 5.00
4 | CCCc1nc2c(N(CCC(C)C)S(=O)(=O)c3cccc(F)c3)cccc2n1CC(=O)O [Example 36, {4-[(3-Fluoro-benzenesulfonyl)-(3-methyl-butyl)-amino]-2-propyl-benzoimidazol-1-yl}-acetic acid] | > 6.00
5 | CCCc1nc2c(N(Cc3ccc(F)cc3)S(=O)(=O)c3cccc(F)c3)cccc2n1CC(=O)O [Example 37, {4-[(3 -Fluoro-benzenesulfonyl)-(4-fluoro-benzyl)-amino]-2-propyl-benzoimidazol-1-yl}-acetic acid] | > 6.00
6 | CCCc1nc2c(N(C(C)C)S(=O)(=O)c3cccc(F)c3)cccc2n1CC(=O)O [Example 38, {4-[(3-Fluoro-benzenesulfonyl)-isopropyl-amino]-2-propyl-benzoimidazol-1-yl}-acetic acid] | > 5.00
7 | CCCc1nc2c(N(Cc3ccccc3)S(=O)(=O)Cc3ccc(F)cc3)cccc2n1CC(=O)O [Example 39, {4-[Benzyl-(4-fluoro-phenylmethanesulfonyl)-amino]-2-propyl-benzoimidazol-1-yl}-acetic acid] | > 6.00
8 | CCCc1nc2cccc(N(Cc3ccccc3)S(=O)(=O)c3ccc(F)cc3)c2n1CC(=O)O [Example 40, {7-[Benzyl-(4-fluoro-benzenesulfonyl)-amino]-2-propyl-benzoimidazol-1-yl}-acetic acid] | < 5.00
9 | CCCc1nc2cc(N(Cc3ccccc3Cl)S(=O)(=O)c3ccc(F)cc3)ccc2n1CC(=O)O [Example 41, {5-[(2-Chloro-benzyl)-(4-fluoro-benzenesulfonyl)-amino]-2-propyl-benzoimidazol-1-yl}-acetic acid] | > 7.00
10 | CCCc1nc2cc(N(Cc3cccc(Cl)c3Cl)S(=O)(=O)c3ccc(F)cc3)ccc2n1CC(=O)O [Example 44, {5-[(2,3-Dichloro-benzyl)-(4-fluoro-benzenesulfonyl)-amino]-2-propyl-benzoimidazol-1-yl}-acetic acid] | > 7.00
11 | CCCc1nc2cc(N(CCCc3ccccc3)S(=O)(=O)c3ccc(F)cc3)ccc2n1CC(=O)O [Example 48, {5-[(4-Fluoro-benzenesulfonyl)-(3-phenyl-propyl)-amino]-2-propyl-benzoimidazol-1-yl}-acetic acid] | > 7.00
12 | CCCc1nc2cc(N(Cc3cccc(F)c3)S(=O)(=O)c3ccc(F)cc3)ccc2n1CC(=O)O [Example 50, {5-[(4-Fluoro-benzenesulfonyl)-(3-fluoro-benzyl)-amino]-2-propyl-benzoimidazol-1-yl}-acetic acid] | > 6.00
13 | CCCc1nc2cc(N(Cc3cccc(C(F)(F)F)c3)S(=O)(=O)c3ccc(F)cc3)ccc2n1CC(=O)O [Example 51, {5-[(4-Fluoro-benzenesulfonyl)-(3-trifluoromethyl-benzyl)-amino]-2-propyl-benzoimidazol-1-yl}-acetic acid] | > 6.00
14 | CCCc1nc2cc(N(Cc3ccc(C#N)cc3)S(=O)(=O)c3ccc(F)cc3)ccc2n1CC(=O)O [Example 52, {5-[(4-Cyano-benzyl)-(4-fluoro-benzenesulfonyl)-amino]-2-propyl-benzoimidazol-1-yl}-acetic acid] | > 7.00
15 | CCCc1nc2cc(N(Cc3ccccc3C#N)S(=O)(=O)c3ccc(F)cc3)ccc2n1CC(=O)O [Example 54, {5-[(2-Cyano-benzyl)-(4-fluoro-benzenesulfonyl)-amino]-2-propyl-benzoimidazol-1-yl}-acetic acid] | > 6.00
16 | C/C=C/CN(c1ccc2c(c1)nc(CCC)n2CC(=O)O)S(=O)(=O)c1ccc(F)cc1 [Example 56, {5-[But-2-enyl-(4-fluoro-benzenesulfonyl)-amino]-2-propyl-benzoimidazol-1-yl}-acetic acid] | > 7.00
17 | CCCc1nc2cc(N(Cc3ccccc3)C(=O)C3CCCC3)ccc2n1CC(=O)O [Example 60, [5-(Benzyl-cyclopentanecarbonyl-amino)-2-propyl-benzoimidazol-1-yl]-acetic acid] | > 5.00
18 | CCCc1nc2cc(N(Cc3ccccc3)C(=O)c3cccc(Cl)c3)ccc2n1CC(=O)O [Example 62, {5-[Benzyl-(3-chloro-benzoyl)-amino]-2-propyl-benzoimidazol-1-yl}-acetic acid] | > 6.00

More lines, now with the values ahead:

Row | pKi | Compound
19 | > 6.00 | CCCc1nc2cc(N(Cc3ccc(F)cc3)C(=O)C3CC3)ccc2n1CC(=O)O [Example 31, {5-[Cyclopropanecarbonyl-(4-fluoro-benzyl)-amino]-2-propyl-benzoimidazol-1-yl}-acetic acid]
20 | > 7.00 | CCCc1nc2cc(N(Cc3ccc(F)cc3)C(C)=O)ccc2n1CC(=O)O [Example 33, {5-[Acetyl-(4-fluoro-benzyl)-amino]-2-propyl-benzoimidazol-1-yl}-acetic acid]
21 | > 7.00 | CCCc1nc2cc(N(Cc3cccc(Cl)c3)S(=O)(=O)c3ccc(F)cc3)ccc2n1CC(=O)O [Example 42, {5-[(3 -Chloro-benzyl)-(4-fluoro-benzenesulfonyl)-amino]-2-propyl-benzoimidazol-1-yl}-acetic acid]
22 | > 6.00 | CCCc1nc2cc(N(Cc3ccccc3C(F)(F)F)S(=O)(=O)c3ccc(F)cc3)ccc2n1CC(=O)O [Example 45, {5-[(2-Trifluoromethyl-benzyl)-(4-fluoro-benzenesulfonyl)-amino]-2-propyl-benzoimidazol-1-yl}-acetic acid]
23 | > 7.00 | CCCc1nc2cc(N(Cc3ccc(OC(F)(F)F)cc3)S(=O)(=O)c3ccc(F)cc3)ccc2n1CC(=O)O [Example 53, {5-[(4-Trifluoromethoxy-benzyl)-(4-fluoro-benzenesulfonyl)-amino]-2-propyl-benzoimidazol-1-yl}-acetic acid]
24 | > 7.00 | CCCc1nc2cc(N(Cc3nc4ccccc4s3)S(=O)(=O)c3ccc(F)cc3)ccc2n1CC(=O)O [Example 55, {5-[Benzothiazol-2-ylmethyl-(4-fluoro-benzenesulfonyl)-amino]-2-propyl-benzoimidazol-1-yl}-acetic acid]
25 | > 5.00 | CCCc1nc2cc(N(Cc3ccccc3)C(C)=O)ccc2n1CC(=O)O [Example 57, [5-(Acetyl-benzyl-amino)-2-propyl-benzoimidazol-1-yl]-acetic acid]
26 | < 5.00 | CCCc1nc2cc(N(Cc3ccccc3)C(=O)C(C)C)ccc2n1CC(=O)O [Example 58, [5-(Benzyl-isobutyryl-amino)-2-propyl-benzoimidazol-1-yl]-acetic acid]
27 | > 5.00 | CCCc1nc2cc(N(Cc3ccccc3)C(=O)CC(C)C)ccc2n1CC(=O)O [Example 59, {5-[Benzyl-(3-methyl-butyryl)-amino]-2-propyl-benzoimidazol-1-yl}-acetic acid]
28 | > 5.00 | CCCc1nc2cc(N(Cc3ccccc3)C(=O)C3CCCCC3)ccc2n1CC(=O)O [Example 61, [5-(Benzyl-cyclohexanecarbonyl-amino)-2-propyl-benzoimidazol-1-yl]-acetic acid]
